Measurements from publication PMC10895676, “Antiviral Activity of Lipophilic Nucleoside Tetraphosphate Compounds” (Journal of Medicinal Chemistry, 2024).
Entries after “also recorded” stand apart in the source; their conditions may differ.

molecular target: T1, human DNA polymerase γ (Homo sapiens, UniProt P54098); experiment: Primer extension assay using human DNA polymerase γ; assay type: biochemical; details: 120 min, 2 U, 37 °C
T1 construct: purchased Chimerx
T1 sequence (P54098 1-1239): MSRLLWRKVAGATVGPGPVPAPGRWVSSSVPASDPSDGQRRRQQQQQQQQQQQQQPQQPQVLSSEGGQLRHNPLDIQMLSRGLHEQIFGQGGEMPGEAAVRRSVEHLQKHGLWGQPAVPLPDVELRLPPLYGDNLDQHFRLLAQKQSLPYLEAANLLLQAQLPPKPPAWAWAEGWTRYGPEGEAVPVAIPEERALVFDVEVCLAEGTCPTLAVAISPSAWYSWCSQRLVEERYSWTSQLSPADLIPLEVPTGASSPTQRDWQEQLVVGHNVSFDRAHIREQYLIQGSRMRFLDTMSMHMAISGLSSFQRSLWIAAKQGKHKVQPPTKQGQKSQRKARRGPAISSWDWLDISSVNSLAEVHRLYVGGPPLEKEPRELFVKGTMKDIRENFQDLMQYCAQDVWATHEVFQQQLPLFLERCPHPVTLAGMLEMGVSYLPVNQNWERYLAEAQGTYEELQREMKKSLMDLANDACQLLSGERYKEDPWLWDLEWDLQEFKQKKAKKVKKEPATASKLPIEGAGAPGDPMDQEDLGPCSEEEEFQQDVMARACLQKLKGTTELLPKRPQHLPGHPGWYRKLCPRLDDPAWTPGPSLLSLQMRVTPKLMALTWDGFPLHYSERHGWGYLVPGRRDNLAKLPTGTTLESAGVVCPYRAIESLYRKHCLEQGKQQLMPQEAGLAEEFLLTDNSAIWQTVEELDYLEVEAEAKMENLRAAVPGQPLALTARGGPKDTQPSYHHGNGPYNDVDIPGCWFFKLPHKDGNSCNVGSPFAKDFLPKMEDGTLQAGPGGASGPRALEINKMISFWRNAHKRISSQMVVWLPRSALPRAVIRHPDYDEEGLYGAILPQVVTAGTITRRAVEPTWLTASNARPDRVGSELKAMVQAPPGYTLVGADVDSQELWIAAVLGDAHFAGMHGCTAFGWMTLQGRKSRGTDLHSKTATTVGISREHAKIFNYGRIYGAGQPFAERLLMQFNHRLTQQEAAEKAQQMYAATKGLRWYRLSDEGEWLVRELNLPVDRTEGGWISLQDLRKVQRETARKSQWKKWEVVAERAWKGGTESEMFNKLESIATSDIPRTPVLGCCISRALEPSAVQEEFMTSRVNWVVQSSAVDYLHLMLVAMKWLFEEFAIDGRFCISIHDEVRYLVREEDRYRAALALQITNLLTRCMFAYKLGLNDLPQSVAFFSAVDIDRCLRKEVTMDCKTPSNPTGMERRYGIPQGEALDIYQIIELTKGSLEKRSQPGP
Description: Encouraged by the previously obtained results that γ-phosphate-modified-d4TDPs 3, γ-monoalkylated d4TTP derivatives as well as d4TDP were accepted as substrates by HIV-RT,[49],[50],[55],[59]−[61] δ-dialkylated d4T tetraphosphate analogues 4,5, δ-monoalkylated d4T tetraphosphate analogues 20 and 24 and d4T4P were investigated in primer extension assays in the presence of HIV-RT or the three different human DNA polymerases α, β and γ. D4TTP (for the compounds 4–9) and the natural thymidine triphosphate (TTP) were used as reference compounds.
Figure 6 Primer extension assay using HIV-RT (A), human polymerases α (B), β (C), and γ (D). (Figure 6A). Primer extension assay using HIV-RT (30 min, 6U). Lane 1: (+) dATP, dCTP, dGTP, and TTP with HIV-RT. Lane 2: (−) dATP, dCTP, dGTP, and TTP without HIV-RT. Lane 3: TTP. […] Lane 5: δ-(C4; C18)-d4T4P 4d. […] Lane 7: δ-(C18)-d4T4P 20. Lane 8: δ-C-(C18)-d4T4P 24. Lane 9: d4T4P. Lane 10: d4TTP. Lane 11: d4TDP. HIV-RT assay reaction conditions: 50 mM Tris–HCl (pH 8.6), 10 mM MgCl2, 40 mM KCl, 250 μM dNTPs, HIV-RT (6 U), 0.20 μM DNA hybrid, primer-template-hybrid 0.32 mM in a reaction volume of 10 μL, incubated at 37 °C for 0.5 h, 80 °C for 7 min. Primer extension assays: 50 mA, 45 w for 4 h. (Figure 6B). For human DNA polymerase α assay (60 min, 2 U): Lane 1: (+) dATP, dCTP, dGTP, and TTP with human polymerase α. Lane 2: (−) dATP, dCTP, dGTP, and TTP without human polymerase α. Lane 3: TTP. […] Lane 5: δ-(C4; C18)-d4T4P 4d. […] Lane 7: δ-(C18)-d4T4P 20. Lane 8: δ-C-(C18)-d4T4P 24. Lane 9: d4T4P. Lane 10: d4TTP. Human DNA polymerase α assay conditions: 60 mM Tris–HCl (pH 8), 5 mM Mg(OAc)2, 100 mM KCl, 1.0 mM dithiothreitol, 0.1 mM spermine, 0.01% (w/v) bovine serum albumin, 250 μM dNTPs, 2 U human polymerase α, 0.20 μM DNA hybrid, and primer-template-hybrid 0.32 mM in a reaction volume of 10 μL, incubated at 37 °C for 1 h, 80 °C for 7 min. Primer extension assays: 50 mA, 45 w for 3 h. (Figure 6C). For human DNA polymerase β assay (60 min, 2 U): Lane 1: (+) dATP, dCTP, dGTP, and TTP with human polymerase β. […]

Row | Structure (SMILES) | substrate for human DNA polymerase γ (primer extension)
1 | CCCCCCCCCCCCCCCCCCOP(=O)(O)OP(=O)(O)OP(=O)(O)OP(=O)(O)OC[C@@H]1C=C[C@H](n2cc(C)c(=O)[nH]c2=O)O1 [compound 20, δ-(Alkyl-C18)-d4T4P] | nonsubstrates
2 | CCCCCCCCCCCCCCCCCCP(=O)(O)OP(=O)(O)OP(=O)(O)OP(=O)(O)OC[C@@H]1C=C[C@H](n2cc(C)c(=O)[nH]c2=O)O1 [compound 24, δ-C-(Alkyl-C18)-d4T4P] | nonsubstrates
3 | Cc1cn([C@H]2C=C[C@@H](COP(=O)(O)OP(=O)(O)OP(=O)(O)OP(=O)(O)O)O2)c(=O)[nH]c1=O [d4T4P, 2′,3′-didehydro-2′,3′-dideoxythymidine-5′-tetraphosphate] | nonsubstrates; also recorded: not a substrate
